Format in all cases: cell-based
In one experiment the test system is S. aureus ATCC 29213. Description: MIC against S. aureus ATCC 29213. As to conditions: Staphylococcus aureus, ATCC29213, S. aureus ATCC 29213; read-out: MIC.
The next experiment has as its system S. aureus BAA 977 iErmA. Briefly: MIC against S. aureus BAA 977 iErmA. As to conditions: Staphylococcus aureus, BAA977.
Experiment [1] has as its system S. aureus MP-549 msr(a) USA 300. Description: MIC against S. aureus MP-549 msr(a) USA 300. Particulars: Staphylococcus aureus, USA300, S. aureus MP-549 msr(a) USA 300.
The subject of the next experiment is S. pneumoniae ATCC 49619. Description: MIC against S. pneumoniae ATCC 49619. Particulars: Streptococcus pneumoniae, ATCC49619, S. pneumoniae ATCC 49619; read-out: MIC.
A further experiment has as its system S. pyogenes ATCC 19615. Description: MIC against S. pyogenes ATCC 19615. As to conditions: Streptococcus pyogenes, ATCC19615, S. pyogenes ATCC 19615; read-out: MIC.
The subject of another experiment is E. faecalis ATCC 29212. Description: MIC against E. faecalis ATCC 29212. Particulars: Enterococcus faecalis, ATCC29212, E. faecalis ATCC 29212; read-out: MIC.
For another experiment, the system named is C. difficile BAA 1805. Briefly: MIC against C. difficile BAA 1805. Particulars: Clostridioides difficile, BAA1805.
The next experiment relates to B. fragilis ATCC 25285. Briefly: MIC against B. fragilis ATCC 25285. As to conditions: Bacteroides fragilis, ATCC25285.
The next experiment relates to K. pneumoniae ATCC 10031. Briefly: MIC against K. pneumoniae ATCC 10031. Particulars: Klebsiella pneumoniae, ATCC10031, read-out: MIC.
A further experiment concerns E. coli ATCC 25922. Briefly: MIC against E. coli ATCC 25922. Particulars: Escherichia coli, ATCC25922, read-out: MIC.
A further experiment concerns E. coli MP-9 ΔTolC. Briefly: MIC against E. coli MP-9 ΔTolC. As to conditions: Escherichia coli.
The test system of experiment [2] is E. coli MP-74 LptD mutant. Description: MIC against E. coli MP-74 LptD mutant. As to conditions: Escherichia coli.
In the next experiment the test system is H. influenzae ATCC 49247. Description: MIC against H. influenzae ATCC 49247. Particulars: Haemophilus influenzae, ATCC49247, H. influenzae ATCC 49247; read-out: MIC.
The test system of a further experiment is S. aureus MMX 3035 cErmA. Description: MIC against S. aureus MMX 3035 cErmA. As to conditions: Staphylococcus aureus, MMX3035CERMA.
Experiment [3] deals with S. pneumoniae MMX 3028 cErmB. Briefly: MIC against S. pneumoniae MMX 3028 cErmB. As to conditions: Streptococcus pneumoniae, MMX3028CERMB.
Experiment [4] relates to S. pneumoniae MMX 3031 cMefA. Briefly: MIC against S. pneumoniae MMX 3031 cMefA. As to conditions: Streptococcus pneumoniae, MMX3031CMEFA.
Experiment [5] has as its system S. pyogenes MMX 946 Macrolide-Resistant. Description: MIC against S. pyogenes MMX 946 Macrolide-Resistant. As to conditions: Streptococcus pyogenes.
For experiment [6], the system named is E. faecalis MMX 847 MacRes. Description: MIC against E. faecalis MMX 847 MacRes. Particulars: Enterococcus faecalis, MMX847MACRES.
Setting [7] is: S. pneumoniae MMX 3028 cErmB, read-out: MIC.
Where [8] appears, read: S. pyogenes MMX 946 Macrolide-Resistant (MacRes), read-out: MIC.

≈ marks a conversion by molar mass, not a printed value. Read-outs that look alike come from different tables or passages of the source.

Turning to `CCC[C@@H]1C[C@@H](C(=O)N[C@H]([C@H](C)NC(=O)CNC)[C@H]2OC(SC)[C@H](O)C(O)C2O)N(C)C1` (stereo partly drawn) [FSA-215078a], the MIC in the experiment with S. aureus ATCC 29213 is more than 64 µg/mL; against S. aureus BAA 977 iErmA, more than 64 µg/mL; in [1], more than 64 µg/mL; in the experiment on S. pneumoniae ATCC 49619, 16 µg/mL (≈ 33.6 µM); in the experiment on S. pyogenes ATCC 19615, 8 µg/mL (≈ 16.8 µM); in the experiment on E. faecalis ATCC 29212 it was more than 64 µg/mL. For the same compound, the MIC (against C. difficile BAA 1805; in the experiment with B. fragilis ATCC 25285; in the experiment on K. pneumoniae ATCC 10031; in the experiment with E. coli ATCC 25922; in the experiment with E. coli MP-9 ΔTolC; in [2]) was more than 64 µg/mL each time. For the same compound, the MIC in the experiment with H. influenzae ATCC 49247 was more than 64 µg/mL.

As to `CCC[C@@H]1C[C@@H](C(=O)N[C@H](CNc2ccc(-c3cccnc3)cc2)[C@H]2OC(SC)[C@H](O)C(O)C2O)N(C)C1` (stereo partly drawn) [FSA-214087], the MIC with S. aureus ATCC 29213 was 32 µg/mL (≈ 58.7 µM); in experiment [1], 32 µg/mL (≈ 58.7 µM); in the experiment with S. aureus MMX 3035 cErmA, more than 64 µg/mL; in the experiment with S. pneumoniae ATCC 49619 it was 8 µg/mL (≈ 14.7 µM); in [3] (setting [7]), more than 64 µg/mL; in experiment [4], 32 µg/mL (≈ 58.7 µM). The MIC with S. pyogenes ATCC 19615 was 8 µg/mL (≈ 14.7 µM); in [5] (setting [8]) it was more than 64 µg/mL; in the experiment on E. faecalis ATCC 29212, more than 64 µg/mL; in the experiment on E. coli ATCC 25922 it was more than 64 µg/mL; against E. coli MP-9 ΔTolC it was more than 64 µg/mL; in experiment [6], more than 64 µg/mL.

On to `CCC[C@@H]1C[C@@H](C(=O)N[C@H]([C@H](C)NC)[C@H]2OC(SC)[C@H](O)C(O)C2O)N(C)C1` (stereo partly drawn) [FSA-215082], for which the MIC with S. aureus ATCC 29213 was 64 µg/mL (≈ 153 µM); against S. aureus BAA 977 iErmA, 64 µg/mL (≈ 153 µM); in experiment [1], more than 64 µg/mL; in the experiment on S. pneumoniae ATCC 49619 it was 16 µg/mL (≈ 38.1 µM); in the experiment with S. pyogenes ATCC 19615, 32 µg/mL (≈ 76.3 µM); in the experiment with E. faecalis ATCC 29212, more than 64 µg/mL. Besides, the MIC (with C. difficile BAA 1805; against B. fragilis ATCC 25285; in the experiment on K. pneumoniae ATCC 10031; in the experiment with E. coli ATCC 25922; with E. coli MP-9 ΔTolC; in experiment [2]) was more than 64 µg/mL throughout. Moreover, the MIC in the experiment with H. influenzae ATCC 49247 was more than 64 µg/mL.

On to `CCC[C@@H]1C[C@@H](C(=O)N[C@H](CN=[N+]=[N-])[C@H]2OC(SC)[C@H](O)C(O)C2O)N(C)C1` (stereo partly drawn) [FSA-215003], for which the MIC in the experiment on S. aureus ATCC 29213 is 8 µg/mL (≈ 19.2 µM); in experiment [1], 0.125 µg/mL (≈ 0.299 µM); against S. aureus MMX 3035 cErmA it was more than 64 µg/mL; in the experiment on S. pneumoniae ATCC 49619, 4 µg/mL (≈ 9.58 µM); in [3] (setting [7]), more than 64 µg/mL; in experiment [4], 0.125 µg/mL (≈ 0.299 µM). The MIC was 2 µg/mL (≈ 4.79 µM) in the experiment with S. pyogenes ATCC 19615; more than 64 µg/mL in [5] (setting [8]); 32 µg/mL (≈ 76.6 µM) in the experiment on E. faecalis ATCC 29212; more than 64 µg/mL in the experiment on E. coli ATCC 25922; 4 µg/mL (≈ 9.58 µM) in the experiment with E. coli MP-9 ΔTolC; more than 64 µg/mL in experiment [6].

Turning to `CCC[C@@H]1C[C@@H](C(=O)N[C@@H]([C@H]2O[C@H](SC)[C@H](O)[C@@H](O)[C@H]2O)[C@H](C)Cl)N(C)C1` [Clindamycin, clindamycin, reference compound], the MIC in experiment [1] is 0.125 µg/mL (≈ 0.294 µM); in the experiment on S. pneumoniae ATCC 49619 it was 0.12 µg/mL (≈ 0.282 µM); in [3], more than 64 µg/mL; in experiment [4], 0.06 µg/mL (≈ 0.141 µM); with S. pyogenes ATCC 19615, 0.06 µg/mL (≈ 0.141 µM); in [5] it was more than 64 µg/mL. In addition, the MIC was 16 µg/mL (≈ 37.6 µM) in the experiment with E. faecalis ATCC 29212; 8 µg/mL (≈ 18.8 µM) in the experiment on C. difficile BAA 1805; 0.5 µg/mL (≈ 1.18 µM) against B. fragilis ATCC 25285; 8 µg/mL (≈ 18.8 µM) with K. pneumoniae ATCC 10031; 8 µg/mL (≈ 18.8 µM) with E. coli MP-9 ΔTolC; 2 µg/mL (≈ 4.71 µM) in [2]. Moreover, the MIC in the experiment with H. influenzae ATCC 49247 was 16 µg/mL (≈ 37.6 µM).

On to `CCC[C@@H]1C[C@@H](C(=O)N[C@H]([C@H](C)N)[C@H]2OC(SC)[C@H](O)C(O)C2O)N(C)C1` (stereo partly drawn) [FSA-215049, 7-(S)-deoxyaminolincomycin], for which the MIC is 64 µg/mL (≈ 158 µM) in the experiment with S. aureus ATCC 29213; 64 µg/mL (≈ 158 µM) in the experiment on S. aureus BAA 977 iErmA; 32 µg/mL (≈ 78.9 µM) in experiment [1]; 8 µg/mL (≈ 19.7 µM) in the experiment with S. pneumoniae ATCC 49619; 16 µg/mL (≈ 39.5 µM) in the experiment on S. pyogenes ATCC 19615; more than 64 µg/mL in the experiment with E. faecalis ATCC 29212. For the same compound, the MIC (in the experiment on C. difficile BAA 1805; in the experiment with K. pneumoniae ATCC 10031; in the experiment with E. coli ATCC 25922; in the experiment on E. coli MP-9 ΔTolC; in experiment [2]; with H. influenzae ATCC 49247) was more than 64 µg/mL in each case.

The record behind these values is patent US11566039B2, “Lincosamide antibiotics and uses thereof” (President and Fellows of Harvard College, priority 2017, dated 2023).
